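Growth conditions: 96-well plates. Treatment: test compound, 48 hours, 5 concentrations. Analysis: linear interpolation between bracketing concentrations; unreached endpoints set to highest concentration. Here, GI50 denotes the concentration required for 50% inhibition of growth.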 Active and inactive are the calls of the source. No stated cut-off is given here; in the data, active = GI50 up to about 1.1 µM and inactive = higher.
What was measured:
Assay in all cases: DTP human tumour cell line panel, 48 h
UACC-62 = system: UACC-62
T47D = system: T47D
PC-3 = system: PC-3
ACHN = system: ACHN
SF-539 = system: SF-539
SW-620 = system: SW-620
M14 = system: M14
Hs-578T = system: Hs-578T
SK-OV-3 = system: SK-OV-3
NCI-H522 = system: NCI-H522
NCI-H226 = system: NCI-H226
SNB-19 = system: SNB-19
UACC-257 = system: UACC-257
MDA-MB-435 = system: MDA-MB-435
TK-10 = system: TK-10
HOP-92 = system: HOP-92
UO-31 = system: UO-31
OVCAR-5 = system: OVCAR-5
HT-29 = system: HT-29
SNB-75 = system: SNB-75
EKVX = system: EKVX
BT-549 = system: BT-549
IGROV-1 = system: IGROV-1
Malme-3M = system: Malme-3M
LOX IMVI = system: LOX IMVI
OVCAR-3 = system: OVCAR-3
K562 = system: K562
SK-MEL-28 = system: SK-MEL-28
A498 = system: A498
COLO 205 = system: COLO 205
RXF 393 = system: RXF 393
786-0 = system: 786-0
SF-268 = system: SF-268
CCRF-CEM = system: CCRF-CEM
SK-MEL-2 = system: SK-MEL-2
RPMI-8226 = system: RPMI-8226
NCI/ADR-RES = system: NCI/ADR-RES
MCF7 = system: MCF7
A549 = system: A549
HCT-15 = system: HCT-15
SF-295 = system: SF-295
SK-MEL-5 = system: SK-MEL-5
HOP-62 = system: HOP-62
NCI-H23 = system: NCI-H23
OVCAR-8 = system: OVCAR-8
KM12 = system: KM12
SR = system: SR
MDA-MB-231 = system: MDA-MB-231
NCI-H460 = system: NCI-H460
U-251 = system: U-251
MOLT-4 = system: MOLT-4
HL-60 = system: HL-60
HCC 2998 = system: HCC 2998
HCT-116 = system: HCT-116
CAKI-1 = system: CAKI-1
OVCAR-4 = system: OVCAR-4
DU-145 = system: DU-145
SN12C = system: SN12C
MDA-N = system: MDA-N

Measured: GI50

O=S(=O)(c1ccc(NC(=S)N/N=C/c2ccccc2O)cc1)N1CCCCC1
active: UACC-62 < 0.01 µM | T47D 0.419 µM | PC-3 0.191 µM | ACHN < 0.01 µM | SF-539 0.326 µM | SW-620 < 0.01 µM | M14 0.0771 µM | SK-OV-3 0.39 µM | NCI-H226 0.151 µM | SNB-19 0.879 µM | UACC-257 0.735 µM | MDA-MB-435 0.302 µM | TK-10 < 0.0457 µM | OVCAR-5 0.269 µM | Malme-3M 0.181 µM | LOX IMVI < 0.01 µM | OVCAR-3 < 0.0498 µM | K562 0.341 µM | A498 0.264 µM | COLO 205 0.773 µM | 786-0 0.188 µM | SF-268 0.0446 µM | CCRF-CEM < 0.023 µM | SK-MEL-2 0.459 µM | RPMI-8226 0.214 µM | NCI/ADR-RES 0.0676 µM | MCF7 0.255 µM | A549 0.255 µM | SF-295 0.0656 µM | SK-MEL-5 < 0.01 µM | HOP-62 0.114 µM | NCI-H23 0.281 µM
inactive: Hs-578T 1.91 µM | NCI-H522 1.61 µM | HOP-92 12.2 µM | UO-31 1.29 µM | HT-29 7.73 µM | SNB-75 1.36 µM | EKVX 1.29 µM | BT-549 37.8 µM | IGROV-1 1.73 µM | SK-MEL-28 1.21 µM | RXF 393 56.8 µM
< 0.01 µM: HCT-15

CC[C@H](CCCC[C@H]1CC[C@@H]2CC(=O)C[C@H]12)OC
inactive: UACC-62 60 µM | T47D 58.9 µM | OVCAR-8 > 100 µM | ACHN > 100 µM | SF-539 > 100 µM | KM12 > 100 µM | M14 > 100 µM | Hs-578T > 100 µM | SR 32.9 µM | SK-OV-3 > 100 µM | NCI-H522 65.8 µM | NCI-H226 > 100 µM | SNB-19 > 100 µM | UACC-257 43.5 µM | MDA-MB-435 > 100 µM | MDA-MB-231 > 100 µM | NCI-H460 > 100 µM | TK-10 > 100 µM | HOP-92 27.4 µM | U-251 95.5 µM | HT-29 59 µM | SNB-75 > 100 µM | EKVX 60.1 µM | BT-549 36.9 µM | IGROV-1 > 100 µM | Malme-3M > 100 µM | LOX IMVI > 100 µM | MOLT-4 53.6 µM | OVCAR-3 85.3 µM | K562 13 µM | COLO 205 > 100 µM | HL-60 24 µM | 786-0 > 100 µM | CCRF-CEM 60.7 µM | SK-MEL-2 > 100 µM | RPMI-8226 34 µM | NCI/ADR-RES 47.4 µM | HCC 2998 > 100 µM | HCT-116 52.2 µM | CAKI-1 > 100 µM | A549 93.8 µM | SF-295 65.9 µM | SK-MEL-5 31.4 µM | HOP-62 > 100 µM | NCI-H23 35.5 µM | OVCAR-4 > 100 µM

Nn1c(S)nnc1-c1ccccc1Nc1ccccc1-c1nnc(S)n1N
inactive: UACC-62 > 50 µM | OVCAR-8 > 50 µM | PC-3 > 50 µM | ACHN > 50 µM | SF-539 > 50 µM | SW-620 > 50 µM | KM12 > 50 µM | M14 > 50 µM | SR > 50 µM | NCI-H522 > 50 µM | NCI-H226 > 50 µM | SNB-19 > 50 µM | UACC-257 > 50 µM | MDA-MB-435 > 50 µM | NCI-H460 > 50 µM | TK-10 > 50 µM | HOP-92 > 50 µM | U-251 > 50 µM | UO-31 > 50 µM | OVCAR-5 > 50 µM | HT-29 > 50 µM | SNB-75 > 50 µM | EKVX > 50 µM | BT-549 > 50 µM | IGROV-1 > 50 µM | Malme-3M > 50 µM | LOX IMVI > 50 µM | MOLT-4 > 50 µM | OVCAR-3 > 50 µM | K562 > 50 µM | SK-MEL-28 > 50 µM | DU-145 > 50 µM | COLO 205 > 50 µM | RXF 393 > 50 µM | HL-60 > 50 µM | 786-0 > 50 µM | SF-268 > 50 µM | CCRF-CEM > 50 µM | SK-MEL-2 > 50 µM | RPMI-8226 41.8 µM | NCI/ADR-RES > 50 µM | HCC 2998 > 50 µM | MCF7 > 50 µM | HCT-116 > 50 µM | SF-295 > 50 µM | SK-MEL-5 > 50 µM | HOP-62 > 50 µM | NCI-H23 > 50 µM | OVCAR-4 > 50 µM
> 50 µM: HCT-15

CC1=CC(C)C(C)N(CCNC(=O)Nc2ccccc2)c2ccccc21 (stereo not given)
inactive: UACC-62 13.6 µM | T47D 21.3 µM | OVCAR-8 15.5 µM | PC-3 13.2 µM | ACHN 15.8 µM | SN12C 25.9 µM | SF-539 21.4 µM | SW-620 26.5 µM | MDA-N 22.5 µM | KM12 26.8 µM | M14 23.8 µM | Hs-578T 2.33 µM | SR 16.3 µM | SK-OV-3 19.1 µM | NCI-H522 12.1 µM | NCI-H226 22.1 µM | SNB-19 20.3 µM | UACC-257 13.7 µM | MDA-MB-435 25.1 µM | MDA-MB-231 13.3 µM | NCI-H460 19.8 µM | TK-10 20.9 µM | UO-31 27.2 µM | OVCAR-5 19.5 µM | HT-29 12 µM | SNB-75 27.3 µM | EKVX 25.9 µM | IGROV-1 28.2 µM | Malme-3M 24.6 µM | LOX IMVI 6.81 µM | MOLT-4 20 µM | OVCAR-3 16 µM | K562 17.1 µM | SK-MEL-28 28.6 µM | A498 16.2 µM | DU-145 32.7 µM | COLO 205 16.6 µM | RXF 393 11.5 µM | 786-0 30.3 µM | SF-268 27.5 µM | CCRF-CEM 20.7 µM | SK-MEL-2 23.1 µM | RPMI-8226 14.6 µM | NCI/ADR-RES 18.2 µM | HCC 2998 18.1 µM | MCF7 17.4 µM | HCT-116 13.9 µM | CAKI-1 19.5 µM | A549 12 µM | SF-295 10 µM | SK-MEL-5 14.1 µM | HOP-62 22.2 µM | NCI-H23 17.6 µM | OVCAR-4 27.4 µM
21.9 µM: HCT-15

From ChEMBL document CHEMBL1201862, “PubChem BioAssay data set” (2004)
